The subject of one test is Escherichia coli. Kind of test: Antimicrobial activity against Escherichia coli ATCC 25922 incubated for 72 hrs. Type of test: functional. To be noted: ATCC 25922, 72 h.
The subject of another test is Staphylococcus aureus. The experiment in a line: Antimicrobial activity against Staphylococcus aureus 209P incubated for 72 hrs. Type of test: functional.
Another test relates to Bacillus subtilis. Kind of test: Antimicrobial activity against Bacillus subtilis PC1219 incubated for 72 hrs. The test is classed as functional. To be noted: PC1219, 72 h.
The next test concerns Micrococcus luteus. The experiment in a line: Antimicrobial activity against Micrococcus luteus IFM2066 incubated for 72 hrs. Type of test: functional. To be noted: IFM2066, 72 h.
The next test deals with Aspergillus niger. The experiment in a line: Antimicrobial activity against Aspergillus niger IFM62678 incubated for 72 hrs. Type of test: functional, organism-based. The settings on record: IFM62678, 72 h.
Test [1] concerns Trichophyton mentagrophytes. The experiment in a line: Antimicrobial activity against Trichophyton mentagrophytes IFM62679 incubated for 72 hrs. The settings on record: IFM62679, 72 h. The test is classed as functional, organism-based.
For another test, the system named is Candida albicans. The experiment in a line: Antimicrobial activity against Candida albicans IFM62680 incubated for 72 hrs. Type of test: functional, organism-based. The settings on record: IFM62680, 72 h.
The next test has as its system Cryptococcus neoformans. Kind of test: Antimicrobial activity against Cryptococcus neoformans IFM62681 incubated for 72 hrs. Type of test: functional, organism-based. The settings on record: IFM62681, 72 h.

≈ marks a conversion by molar mass, not a printed value.

Usually MIC stands for the least concentration at which growth counts as inhibited. Lower therefore signals inhibition by little substance. What is called IC50 is the concentration needed to halve the response being measured. High values mean a need for much substance, low ones inhibition by little substance. Regarding `NCCc1c(C(C2=C[C@@]3(O)CC/C=C\CCCCN4CC[C@@H]2[C@]2(C[C@@H]5/C=C\CCCCN5[C@H]23)C4)c2[nH]c3ccccc3c2CCN)[nH]c2ccccc12`, the MIC against Escherichia coli was determined as 32 µg/mL (≈ 44.9 µM); in the test with Staphylococcus aureus, 8 µg/mL (≈ 11.2 µM); against Bacillus subtilis, 8 µg/mL (≈ 11.2 µM); with Micrococcus luteus, 8 µg/mL (≈ 11.2 µM). Moreover, the IC50 in the test on Aspergillus niger came out at 16 µg/mL (≈ 22.4 µM); in test [1], 8 µg/mL (≈ 11.2 µM); in the test on Candida albicans it was 16 µg/mL (≈ 22.4 µM); in the test on Cryptococcus neoformans, 2 µg/mL (≈ 2.8 µM).

The record behind these values is ChEMBL document CHEMBL4184130, “Zamamidine D, a Manzamine Alkaloid from an Okinawan Amphimedon sp. Marine Sponge” (J Nat Prod, 2017).
